Source: the supplement of paper PMC10307832

Columns and labels:
Assay in all cases: relative viability (nuclei count vs DMSO), 5 days (fraction); higher = more cells survive
PC-14 = details: first compound 0.1 µM
Procedure, shortened: (§1)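 A single step with final 0.05% Triton X-100, 1% formaldehyde and 1 ug/ml Hoechst fixed the cells and stained nuclei 5 days after treatment. Lung cancer cell lines in 1536-well plates had been treated by pin tool the day after seeding with one drug alone or a fixed anchor-drug dose plus five library-drug doses (not always all listed) in √10 steps, and nuclei were counted on 4× images. Relative viability is the ratio of nuclei in treated wells to nuclei in vehicle wells, taken as the median of duplicate plates.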

EMC-BAC-2 = test system: EMC-BAC-2
Procedure, shortened: as §1

HCC-78 = test system: HCC-78
Procedure, shortened: as §1

201T = test system: 201T
Procedure, shortened: as §1

HOP-62 = test system: HOP-62
Procedure, shortened: as §1

NCI-H460 = test system: NCI-H460
Procedure, shortened: as §1

LK-2 = test system: LK-2
Procedure, shortened: as §1

NCI-H1563 = test system: NCI-H1563
Procedure, shortened: as §1

EKVX = test system: EKVX
Procedure, shortened: as §1

NCI-H1734 = test system: NCI-H1734
Procedure, shortened: as §1

HCC-15 = test system: HCC-15
Procedure, shortened: as §1

## Cc1cn(-c2cc(NC(=O)c3ccc(C)c(Nc4nccc(-c5cccnc5)n4)c3)cc(C(F)(F)F)c2)cn1 [Nilotinib] + Cc1nc(NC(=O)N2CCC[C@H]2C(N)=O)sc1-c1ccnc(C(C)(C)C(F)(F)F)c1 [Alpelisib] (partner 2 µM)
PC-14
  relative viability: 0.888
EMC-BAC-2; first compound 0.001 µM
  relative viability: 0.728
EMC-BAC-2; first compound 0.003162 µM
  relative viability: 0.893
EMC-BAC-2; first compound 0.01 µM
  relative viability: 0.883
EMC-BAC-2; first compound 0.03162 µM
  relative viability: 0.668
EMC-BAC-2; first compound 0.1 µM
  relative viability: 0.787
HCC-78; first compound 0.001 µM
  relative viability: 0.347
HCC-78; first compound 0.003162 µM
  relative viability: 0.381
HCC-78; first compound 0.01 µM
  relative viability: 0.444
HCC-78; first compound 0.03162 µM
  relative viability: 0.34
HCC-78; first compound 0.1 µM
  relative viability: 0.382
201T; first compound 0.003162 µM
  relative viability: 1.11
201T; first compound 0.01 µM
  relative viability: 1.09
201T; first compound 0.1 µM
  relative viability: 1.07
HOP-62; first compound 0.001 µM
  relative viability: 0.889
HOP-62; first compound 0.003162 µM
  relative viability: 0.843
HOP-62; first compound 0.01 µM
  relative viability: 1.13
HOP-62; first compound 0.03162 µM
  relative viability: 0.742
HOP-62; first compound 0.1 µM
  relative viability: 0.7
NCI-H460; first compound 0.001 µM
  relative viability: 0.518
NCI-H460; first compound 0.003162 µM
  relative viability: 0.88
NCI-H460; first compound 0.01 µM
  relative viability: 0.936
NCI-H460; first compound 0.03162 µM
  relative viability: 0.312
NCI-H460; first compound 0.1 µM
  relative viability: 0.41
LK-2; first compound 0.001 µM
  relative viability: 1.16
LK-2; first compound 0.003162 µM
  relative viability: 0.966
LK-2; first compound 0.03162 µM
  relative viability: 1
LK-2; first compound 0.1 µM
  relative viability: 1.22
NCI-H1563; first compound 0.001 µM
  relative viability: 0.738
NCI-H1563; first compound 0.003162 µM
  relative viability: 0.905
NCI-H1563; first compound 0.01 µM
  relative viability: 0.839
NCI-H1563; first compound 0.03162 µM
  relative viability: 0.849
NCI-H1563; first compound 0.1 µM
  relative viability: 0.79
EKVX; first compound 0.001 µM
  relative viability: 0.813
EKVX; first compound 0.003162 µM
  relative viability: 1.13
EKVX; first compound 0.01 µM
  relative viability: 1.29
EKVX; first compound 0.03162 µM
  relative viability: 0.909
EKVX; first compound 0.1 µM
  relative viability: 1.02
NCI-H1734; first compound 0.001 µM
  relative viability: 0.692
NCI-H1734; first compound 0.003162 µM
  relative viability: 0.638
NCI-H1734; first compound 0.01 µM
  relative viability: 0.682
NCI-H1734; first compound 0.03162 µM
  relative viability: 0.551
NCI-H1734; first compound 0.1 µM
  relative viability: 0.507
HCC-15; first compound 0.001 µM
  relative viability: 0.824
HCC-15; first compound 0.003162 µM
  relative viability: 1.11
HCC-15; first compound 0.01 µM
  relative viability: 1.05
HCC-15; first compound 0.03162 µM
  relative viability: 0.727
HCC-15; first compound 0.1 µM
  relative viability: 0.616
